Measurements published in ChEMBL document CHEMBL3758091, “Identification of N-(6-mercaptohexyl)-3-(4-pyridyl)-1H-pyrazole-5-carboxamide and its disulfide prodrug as potent histone deacetylase inhibitors with in vitro and in vivo anti-tumor efficacy” (Eur J Med Chem, 2016).

Experiments:
[1] = target: Histone deacetylase; test: Inhibition of HDAC in human HeLa cell nuclear extract using Boc-Lys(Ac)-AMC as substrate preincubated for 15 mins followed by substrate addition measured after 60 mins by fluorescence-based assay
[2] = target: T1, Histone deacetylase 1 (Homo sapiens, UniProt Q13547); test: Inhibition of recombinant human HDAC1 using Boc-Lys(Ac)-AMC as substrate preincubated for 15 mins followed by substrate addition measured after 60 mins by fluorescence-based assay
[3] = target: T2, Protein deacetylase HDAC6 (Homo sapiens, UniProt Q9UBN7); test: Inhibition of recombinant human HDAC6 using Boc-Lys(Ac)-AMC as substrate preincubated for 15 mins followed by substrate addition measured after 60 mins by fluorescence-based assay
T2 sequence (Q9UBN7 whole entry): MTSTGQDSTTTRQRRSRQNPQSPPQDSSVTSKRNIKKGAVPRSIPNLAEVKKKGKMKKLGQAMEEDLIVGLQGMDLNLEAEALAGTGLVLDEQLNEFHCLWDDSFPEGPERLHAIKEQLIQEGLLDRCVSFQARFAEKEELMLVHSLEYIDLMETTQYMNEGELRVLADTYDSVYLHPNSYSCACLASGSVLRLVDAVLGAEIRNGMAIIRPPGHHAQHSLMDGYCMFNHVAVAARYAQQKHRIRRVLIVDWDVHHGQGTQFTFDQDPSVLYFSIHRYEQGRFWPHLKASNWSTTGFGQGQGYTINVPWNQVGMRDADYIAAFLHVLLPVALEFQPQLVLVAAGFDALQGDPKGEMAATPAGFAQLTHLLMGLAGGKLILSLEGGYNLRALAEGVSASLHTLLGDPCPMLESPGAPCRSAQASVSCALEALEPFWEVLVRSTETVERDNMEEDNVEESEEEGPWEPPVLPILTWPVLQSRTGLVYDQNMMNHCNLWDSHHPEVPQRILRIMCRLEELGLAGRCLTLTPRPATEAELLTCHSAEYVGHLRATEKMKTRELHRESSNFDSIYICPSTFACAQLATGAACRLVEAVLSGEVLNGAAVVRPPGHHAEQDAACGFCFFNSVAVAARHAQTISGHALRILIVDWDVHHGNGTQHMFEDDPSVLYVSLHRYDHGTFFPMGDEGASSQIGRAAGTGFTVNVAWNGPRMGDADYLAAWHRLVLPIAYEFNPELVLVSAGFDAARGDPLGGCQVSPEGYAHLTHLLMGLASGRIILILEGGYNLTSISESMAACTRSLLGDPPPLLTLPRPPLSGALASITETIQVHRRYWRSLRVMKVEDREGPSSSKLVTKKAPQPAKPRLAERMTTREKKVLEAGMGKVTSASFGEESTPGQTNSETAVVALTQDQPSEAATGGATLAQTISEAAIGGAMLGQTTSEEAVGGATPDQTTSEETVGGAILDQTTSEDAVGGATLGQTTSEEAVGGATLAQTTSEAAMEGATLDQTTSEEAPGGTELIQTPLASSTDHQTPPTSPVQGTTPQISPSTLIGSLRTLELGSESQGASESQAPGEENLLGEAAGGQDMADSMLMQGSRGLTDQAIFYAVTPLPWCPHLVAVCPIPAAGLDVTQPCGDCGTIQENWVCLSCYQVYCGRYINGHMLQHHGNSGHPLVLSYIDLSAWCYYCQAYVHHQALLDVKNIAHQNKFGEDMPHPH

[4] = test system: MCF7; test: cells; type: functional; settings: Homo sapiens, MCF7, 96 h
Description: Growth inhibition of human MCF7 cells after 96 hrs by MTT assay

[5] = cells; type: functional; settings: Homo sapiens, HCT-116, 96 h
Description: Growth inhibition of human HCT116 cells after 96 hrs by MTT assay

[6] = test system: HT-29; test: Growth inhibition of human HT-29 cells after 96 hrs by MTT assay; type: functional; settings: Homo sapiens, HT-29, 96 h
[7] = test system: MDA-MB-231; test: cells; type: functional; settings: Homo sapiens, MDA-MB-231, 96 h
Description: Growth inhibition of human MDA-MB-231 cells after 96 hrs by MTT assay

[8] = test system: A549; test: cells; type: functional; settings: Homo sapiens, A549, 96 h
Description: Growth inhibition of human A549 cells after 96 hrs by MTT assay

[9] = cells; type: functional; settings: Homo sapiens, PC-3, 96 h
Description: Growth inhibition of human PC3 cells after 96 hrs by MTT assay

[10] = cells; type: functional; settings: Homo sapiens, ASPC1, 96 h
Description: Growth inhibition of human Aspc-1 cells after 96 hrs by MTT assay

[11] = Cytotoxicity against HEK293 cells assessed as growth inhibition after 96 hrs by MTT assay; settings: human
[12] = target: Histone deacetylase 2 (Homo sapiens, UniProt Q92769); test: Inhibition of recombinant human HDAC2 using Boc-Lys(Ac)-AMC as substrate preincubated for 15 mins followed by substrate addition measured after 60 mins by fluorescence-based assay
[13] = target: Histone deacetylase 3 (Homo sapiens, UniProt O15379); test: Inhibition of recombinant human HDAC3 using Boc-Lys(Ac)-AMC as substrate preincubated for 15 mins followed by substrate addition measured after 60 mins by fluorescence-based assay
[14] = target: T3, Histone deacetylase 8 (Homo sapiens, UniProt Q9BY41); test: Inhibition of recombinant human HDAC8 using Boc-Lys(TFA)-AMC as substrate preincubated for 15 mins followed by substrate addition measured after 60 mins by fluorescence-based assay
T3 sequence (Q9BY41 whole entry): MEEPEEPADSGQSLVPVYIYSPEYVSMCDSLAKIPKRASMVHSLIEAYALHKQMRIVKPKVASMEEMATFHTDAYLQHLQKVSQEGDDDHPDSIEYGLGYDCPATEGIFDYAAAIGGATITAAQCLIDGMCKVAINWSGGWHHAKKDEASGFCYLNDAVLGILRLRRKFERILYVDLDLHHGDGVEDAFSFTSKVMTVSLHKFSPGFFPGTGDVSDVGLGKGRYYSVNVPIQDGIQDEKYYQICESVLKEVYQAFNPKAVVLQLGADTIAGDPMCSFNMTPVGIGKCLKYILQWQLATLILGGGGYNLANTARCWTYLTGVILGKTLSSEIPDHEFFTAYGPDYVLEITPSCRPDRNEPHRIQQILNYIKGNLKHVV

[15] = target: Histone deacetylase 4 (Homo sapiens, UniProt P56524); test: Inhibition of recombinant human HDAC4 using Boc-Lys(TFA)-AMC as substrate preincubated for 15 mins followed by substrate addition measured after 60 mins by fluorescence-based assay
[16] = target: T4, Histone deacetylase 11 (Homo sapiens, UniProt Q96DB2); test: Inhibition of recombinant human HDAC11 using Boc-Lys(TFA)-AMC as substrate preincubated for 15 mins followed by substrate addition measured after 60 mins by fluorescence-based assay
T4 sequence (Q96DB2 whole entry): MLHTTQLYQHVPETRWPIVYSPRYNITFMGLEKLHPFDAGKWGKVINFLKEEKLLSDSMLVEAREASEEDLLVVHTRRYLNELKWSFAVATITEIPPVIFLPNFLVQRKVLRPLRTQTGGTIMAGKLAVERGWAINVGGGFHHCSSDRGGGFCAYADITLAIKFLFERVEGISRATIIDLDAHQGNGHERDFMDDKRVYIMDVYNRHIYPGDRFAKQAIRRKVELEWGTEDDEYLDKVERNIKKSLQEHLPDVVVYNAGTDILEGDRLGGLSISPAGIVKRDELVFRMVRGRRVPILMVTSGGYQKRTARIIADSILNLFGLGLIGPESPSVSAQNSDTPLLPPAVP

[17] = target: T1, Histone deacetylase 1; test: Inhibition of HDAC1 in human HCT116 cells assessed as increase in acetylated histone H3 level after 24 hrs by Western blot analysis; type: cell-based; settings: HCT-116
[18] = target: T5, Protein deacetylase HDAC6 (Homo sapiens) (UniProt Q9UBN7); test: Inhibition of HDAC6 in human HCT116 cells assessed as increase in acetylated tubulin level after 24 hrs by Western blot analysis; type: cell-based; settings: HCT-116
T5 sequence (whole entry): T2 sequence (Q9UBN7 whole entry)

T1 sequence (Q13547 whole entry): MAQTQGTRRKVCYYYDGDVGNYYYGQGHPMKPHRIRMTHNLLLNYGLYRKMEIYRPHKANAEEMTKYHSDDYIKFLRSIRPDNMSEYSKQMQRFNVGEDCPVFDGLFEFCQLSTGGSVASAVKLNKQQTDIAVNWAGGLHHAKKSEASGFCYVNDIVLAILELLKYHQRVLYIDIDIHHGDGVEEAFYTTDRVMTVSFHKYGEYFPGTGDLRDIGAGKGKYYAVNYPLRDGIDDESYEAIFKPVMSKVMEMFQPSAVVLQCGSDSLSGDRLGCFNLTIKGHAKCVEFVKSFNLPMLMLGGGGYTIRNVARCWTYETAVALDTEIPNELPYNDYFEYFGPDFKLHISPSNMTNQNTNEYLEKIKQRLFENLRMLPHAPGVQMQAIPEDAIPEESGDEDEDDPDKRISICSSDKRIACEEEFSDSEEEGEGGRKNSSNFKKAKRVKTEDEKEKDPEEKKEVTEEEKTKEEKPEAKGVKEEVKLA
Chain of Histone deacetylase 3 (O15379 whole entry): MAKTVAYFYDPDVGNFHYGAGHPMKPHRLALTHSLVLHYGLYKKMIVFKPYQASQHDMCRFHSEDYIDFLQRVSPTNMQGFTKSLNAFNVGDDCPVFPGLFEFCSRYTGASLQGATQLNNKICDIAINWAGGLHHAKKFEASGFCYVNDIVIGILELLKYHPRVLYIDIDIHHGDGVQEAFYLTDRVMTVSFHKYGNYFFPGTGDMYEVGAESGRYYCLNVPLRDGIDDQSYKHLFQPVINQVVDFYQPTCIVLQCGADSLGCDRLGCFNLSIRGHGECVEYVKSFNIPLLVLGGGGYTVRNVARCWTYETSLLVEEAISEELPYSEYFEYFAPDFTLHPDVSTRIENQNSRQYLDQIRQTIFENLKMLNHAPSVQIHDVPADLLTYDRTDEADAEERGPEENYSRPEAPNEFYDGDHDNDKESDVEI
Chain of Histone deacetylase 4 (P56524 whole entry): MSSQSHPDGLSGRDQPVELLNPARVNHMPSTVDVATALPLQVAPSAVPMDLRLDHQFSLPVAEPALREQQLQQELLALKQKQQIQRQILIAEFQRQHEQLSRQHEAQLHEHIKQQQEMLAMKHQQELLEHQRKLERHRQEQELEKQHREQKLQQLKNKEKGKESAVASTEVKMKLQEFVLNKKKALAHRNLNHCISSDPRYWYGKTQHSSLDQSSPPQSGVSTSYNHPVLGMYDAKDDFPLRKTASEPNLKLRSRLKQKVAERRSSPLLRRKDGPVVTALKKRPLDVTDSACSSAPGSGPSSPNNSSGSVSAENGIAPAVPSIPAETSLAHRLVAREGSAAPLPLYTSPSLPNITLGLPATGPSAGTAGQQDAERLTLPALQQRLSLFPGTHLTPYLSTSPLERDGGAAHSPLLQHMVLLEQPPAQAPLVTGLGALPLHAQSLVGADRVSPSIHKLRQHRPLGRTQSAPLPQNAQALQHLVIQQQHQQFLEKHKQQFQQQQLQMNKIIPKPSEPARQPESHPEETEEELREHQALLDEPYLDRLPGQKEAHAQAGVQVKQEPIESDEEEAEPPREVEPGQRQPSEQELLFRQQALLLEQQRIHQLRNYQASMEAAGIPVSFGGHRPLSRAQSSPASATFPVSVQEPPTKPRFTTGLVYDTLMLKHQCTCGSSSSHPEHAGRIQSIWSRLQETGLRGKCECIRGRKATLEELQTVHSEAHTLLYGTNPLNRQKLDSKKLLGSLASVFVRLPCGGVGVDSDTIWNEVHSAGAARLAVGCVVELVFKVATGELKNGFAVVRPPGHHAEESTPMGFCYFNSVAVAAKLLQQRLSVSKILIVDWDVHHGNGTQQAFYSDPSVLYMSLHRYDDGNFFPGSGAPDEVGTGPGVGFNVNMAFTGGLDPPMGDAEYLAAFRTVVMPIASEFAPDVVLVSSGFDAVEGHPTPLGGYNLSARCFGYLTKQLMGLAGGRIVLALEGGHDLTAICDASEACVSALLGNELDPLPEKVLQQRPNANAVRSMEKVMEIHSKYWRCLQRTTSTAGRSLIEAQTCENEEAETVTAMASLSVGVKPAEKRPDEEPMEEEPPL
Chain of Histone deacetylase 2 (Q92769 whole entry): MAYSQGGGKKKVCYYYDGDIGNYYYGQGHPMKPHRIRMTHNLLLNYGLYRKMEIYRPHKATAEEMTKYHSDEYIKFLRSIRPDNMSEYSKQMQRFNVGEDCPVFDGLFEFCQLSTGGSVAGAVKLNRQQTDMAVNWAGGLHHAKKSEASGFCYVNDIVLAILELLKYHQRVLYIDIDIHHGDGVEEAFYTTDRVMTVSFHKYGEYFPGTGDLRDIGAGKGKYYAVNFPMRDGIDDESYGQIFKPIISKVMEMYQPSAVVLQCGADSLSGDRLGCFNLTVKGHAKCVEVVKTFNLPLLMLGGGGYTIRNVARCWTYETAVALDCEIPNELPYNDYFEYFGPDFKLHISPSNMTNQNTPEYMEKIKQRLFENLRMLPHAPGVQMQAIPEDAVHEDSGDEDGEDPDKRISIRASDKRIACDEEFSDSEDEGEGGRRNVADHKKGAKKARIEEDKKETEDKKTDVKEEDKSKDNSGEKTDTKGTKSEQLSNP

Row | IC50 [1] [µM] | IC50 [2] [µM] | IC50 [3] [µM] | GI50 [4] [µM] | GI50 [6] [µM] | GI50 [7] [µM] | GI50 [8] [µM] | IC50 [12] [µM] | IC50 [13] [µM] | IC50 [14] [µM] | IC50 [15] [µM] | IC50 [16] [µM] | inhibition [17] | inhibition [18] | SMILES | GI50 [5] [µM] | GI50 [9] [µM] | GI50 [10] [µM] | GI50 at 96 h [11] [µM]
1 |  |  |  | > 50 |  |  |  |  |  |  |  |  |  |  | O=C(CCCCCCS)Nc1ccccc1 | > 50 |  |  | 
2 | 0.608 | 0.429 | 0.244 | > 50 |  |  |  |  |  |  |  |  |  |  | O=C(NCCCCCCS)c1cc(-c2cccc3ccccc23)n[nH]1 | > 50 |  |  | 
3 | 0.081 | 0.526 | 0.092 | > 50 |  |  |  |  |  |  |  |  |  |  | O=C(NCCCCCCS)c1ccn[nH]1 | > 50 |  |  | 
4 | 0.033 | 0.124 | 0.027 | 26.8 |  |  |  |  |  |  |  |  |  |  | O=C(NCCCCCCS)c1cc(-c2ccccn2)n[nH]1 | > 50 |  |  | 

Further lines, the compound ahead of its results:

Row | SMILES | IC50 [1] [µM] | IC50 [2] [µM] | IC50 [3] [µM] | GI50 [4] [µM] | GI50 [6] [µM] | GI50 [7] [µM] | GI50 [8] [µM] | IC50 [12] [µM] | IC50 [13] [µM] | IC50 [14] [µM] | IC50 [15] [µM] | IC50 [16] [µM] | inhibition [17] | inhibition [18] | GI50 [5] [µM] | GI50 [9] [µM] | GI50 [10] [µM] | GI50 at 96 h [11] [µM]
5 | O=C(NCCCCCCS)c1cc(-c2ccccc2)n[nH]1 | 0.023 | 0.098 | 0.03 | > 50 |  |  |  |  |  |  |  |  |  |  | > 50 |  |  | 
6 | CCCC(=O)SCCCCCCNC(=O)c1cc(-c2ccncc2)n[nH]1 |  |  |  | 12.1 | 12.4 | > 50 | 15.1 |  |  |  |  |  |  |  | 23.5 | 32.1 | 28.1 | > 50
7 | O=C(NCCCCCCS)c1cc(-c2cnccn2)n[nH]1 | 0.018 | 0.015 | 0.022 | > 50 |  |  |  | 0.068 | 0.023 | > 10 | > 10 | > 10 |  |  | > 50 |  |  | 
8 | CSCCCCCCNC(=O)c1cc(-c2ccncc2)n[nH]1 |  |  |  | > 50 | > 50 | > 50 | > 50 |  |  |  |  |  |  |  | > 50 | > 50 | > 50 | > 50
9 | CC(=O)SCCCCCCNC(=O)c1cc(-c2ccncc2)n[nH]1 |  |  |  | 24.9 | 23.1 | > 50 | 18 |  |  |  |  |  |  |  | 41.1 | 36 | > 50 | > 50
10 | O=C(NCCCCCCS)c1cc(-c2ccncc2)n[nH]1 | 0.008 | 0.012 | 0.018 | 12.2 | 10.2 | > 50 | 14.4 | 0.072 | 0.011 | > 10 | > 10 | > 10 | Dose-dependent effect | Dose-dependent effect | 25.3 | 11 | 36.9 | 17.5
11 | COc1ccc(-c2cc(C(=O)NCCCCCCS)[nH]n2)cc1 | 0.15 |  | 0.167 | 14.8 |  |  |  |  |  |  |  |  |  |  | > 50 |  |  | 
12 | O=C(NCCCCCCS)c1cc(-c2ccc3ccccc3c2)n[nH]1 | 0.102 | 0.133 | 0.235 | > 50 |  |  |  |  |  |  |  |  |  |  | > 50 |  |  | 
